Measurements taken from US6613776B2, “Pyrazole compounds useful as protein kinase inhibitors” (Vertex Pharmaceuticals Incorporated, priority 2000, dated 2003).

Key:
GSK-3β (AA 1-420) = target: T1, GSK-3β (AA 1-420) (Homo sapiens, UniProt P49841); assay: Ki determination for the inhibition of GSK-3 (coupled enzyme system); type: biochemical; settings: 20 μM ATP, 300 μM peptide, 20 nM GSK-3β, 30° C.
T1 construct: GSK-3β (AA 1-420)
Experimental: Compounds were screened for their ability to inhibit GSK-3β (AA 1-420) activity using a standard coupled enzyme system (Fox et al. (1998) Protein Sci. 7, 2249). Reactions were carried out in a solution containing 100 mM HEPES (pH 7.5), 10 mM MgCl2, 25 mM NaCl, 300 μM NADH, 1 mM DTT and 1.5% DMSO. Final substrate concentrations in the assay were 20 μM ATP (Sigma Chemicals, St Louis, Mo.) and 300 μM peptide (HSSPHQS(PO3H2)EDEEE, American Peptide, Sunnyvale, Calif.). Reactions were carried out at 30° C. and 20 nM GSK-3β. Final concentrations of the components of the coupled enzyme system were 2.5 mM phosphoenolpyruvate, 300 μM NADH, 30 μg/ml pyruvate kinase and 10 μg/ml lactate dehydrogenase.
An assay stock buffer solution was prepared containing all of the reagents listed above with the exception of ATP and the test compound of interest. The assay stock buffer solution (175 μl) was incubated in a 96 well plate with 5 μl of the test compound of interest at final concentrations spanning 0.002 μM to 30 μM at 30° C. for 10 min. Typically, a 12 point titration was conducted by preparing serial dilutions (from 10 mM compound stocks) with DMSO of the test compounds in daughter plates. […] Rates of reaction were obtained using a Molecular Devices Spectramax plate reader (Sunnyvale, Calif.) over 10 min at 30° C. The Ki values were determined from the rate data as a function of inhibitor concentration.

Aurora-2 = target: T2, Aurora-2 (Homo sapiens, UniProt O14965); assay: Ki determination for the inhibition of Aurora-2 (coupled enzyme assay); type: biochemical; settings: 70 nM Aurora-2, 30° C.
T2 sequence (O14965 1-403): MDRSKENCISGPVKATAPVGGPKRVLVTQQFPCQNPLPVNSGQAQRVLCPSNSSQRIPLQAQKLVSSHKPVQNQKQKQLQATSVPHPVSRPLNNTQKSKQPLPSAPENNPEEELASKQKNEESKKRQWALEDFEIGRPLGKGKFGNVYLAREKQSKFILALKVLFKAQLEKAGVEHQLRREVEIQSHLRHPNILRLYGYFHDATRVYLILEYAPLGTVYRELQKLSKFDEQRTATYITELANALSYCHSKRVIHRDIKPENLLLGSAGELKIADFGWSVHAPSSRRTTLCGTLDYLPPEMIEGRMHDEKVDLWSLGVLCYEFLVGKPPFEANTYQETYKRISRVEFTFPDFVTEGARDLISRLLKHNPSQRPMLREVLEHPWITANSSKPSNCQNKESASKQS
Experimental: Compounds were screened in the following manner for their ability to inhibit Aurora-2 using a standard coupled enzyme assay (Fox et al (1998) Protein Sci 7, 2249).
To an assay stock buffer solution containing 0.1M HEPES 7.5, 10 mM MgCl2, 1 mM DTT, 25 mM NaCl, 2.5 mM phosphoenolpyruvate, […], 30 mg/ml pyruvate kinase, 10 mg/ml lactate dehydrogenase, […], and 800 μM peptide (LRRASLG, American Peptide, Sunnyvale, Calif.) was added a DMSO solution of a compound of the present invention to a final concentration of 30 μM. The resulting mixture was incubated at 30° C. for 10 min. The reaction was initiated by the addition of 10 μL of Aurora-2 stock solution to give a final concentration of 70 nM in the assay. The rates of reaction were obtained by monitoring absorbance at 340 nm over a 5 minute read time at 30° C. using a BioRad Ultramark plate reader (Hercules, Calif.). The Ki values were determined from the rate data as a function of inhibitor concentration.

T1 sequence (P49841 whole entry, the tested form may be a part): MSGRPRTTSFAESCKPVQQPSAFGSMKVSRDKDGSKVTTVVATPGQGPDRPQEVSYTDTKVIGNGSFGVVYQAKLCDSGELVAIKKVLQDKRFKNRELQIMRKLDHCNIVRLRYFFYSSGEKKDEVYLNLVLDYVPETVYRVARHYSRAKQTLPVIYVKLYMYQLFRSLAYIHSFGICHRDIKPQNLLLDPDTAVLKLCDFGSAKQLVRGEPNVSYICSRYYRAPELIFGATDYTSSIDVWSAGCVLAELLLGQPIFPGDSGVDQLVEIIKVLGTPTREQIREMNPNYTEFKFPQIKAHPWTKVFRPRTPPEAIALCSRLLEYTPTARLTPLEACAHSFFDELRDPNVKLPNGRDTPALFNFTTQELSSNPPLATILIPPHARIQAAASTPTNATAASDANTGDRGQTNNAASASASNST

| Ki (GSK-3β (AA 1-420)) | melting point | Ki (Aurora-2) | SMILES |
| --- | --- | --- | --- |
| 100 to 1000 nM | > 300 °C | 100 to 1000 nM | Cc1cc(Nc2nc(N3CCC(C)CC3)nc3nc[nH]c23)n[nH]1 [IV-33, [2-(4-Methylpiperidin-1-yl)-purin-4-yl]-(S-methyl-2H-pyrazol-3-yl)-amine] |
| 100 to 1000 nM |  |  | COC(=O)c1cc(Nc2ccnc(N3CCCCC3)n2)n[nH]1 [IV-8] |
